Molecular target: LDHC (Homo sapiens, UniProt P07864)
Assay: Coupled diaphorase assay (LDHC inhibition)
Format: biochemical
Details: 10 nM LDHC, 500 μM lactate, 150 μM NAD+, 3 μM resazurin, fluorescence readout of resorufin
Excerpt: The inhibitory properties of the compounds were investigated using a coupled enzyme assay that links the lactate dehydrogenase (LDH) reaction to the production of fluorescent resorufin by diaphorase.
Human lactate dehydrogenases (LDH) catalyze the reversible interconversion between pyruvate and lactate. LDH is capable of catalyzing both the forward (pyruvate to lactate) and the reverse (lactate to pyruvate) reaction, using either NADH or NAD+ as cofactor. The reaction proceeds in either direction dependent on various factors, such as substrate availability, the presence of necessary cofactors, temperature and pH.
The coupled assay relies on the […] of NAD+ to NADH throughout the conversion of lactate to pyruvate by LDHC. The produced NADH serves as cofactor in the diaphorase reaction, which reduces non-fluorescent resazurin to fluorescent resorufin. Therefore, the assay indirectly monitors the rate of pyruvate production. Although the consumption or formation of NADH can be directly monitored due to the intrinsic fluorescence of the molecule (excitation: 340 nm, emission: 460 nm) there are problems linked to the direct readout method. It has been shown that many compounds in chemical libraries interfere with the assay due to fluorescent properties similar to NADH. Shifting the assay to longer wavelengths by coupling the LDH reaction to the conversion of resazurin to fluorescent resorufin by diaphorase reduces this compound interference. The assay direction was thus chosen to provide a robust and reliable assay.
For the determination of IC50 values a coupled diaphorase assay was adopted from Bembenek et al. (A Fluorescence-Based Coupling Reaction for Monitoring the Activity of Recombinant Human NAD Synthetase. ASSAY and Drug Development Technologies, 2005. 3(5): 533-541). Compounds were tested in duplicates using 2-fold, 3-fold or 4-fold serial dilutions including 11 individual concentrations, starting from 5000 μM to 30 μM depending on their activity in initial tests. Positive (without compound in the presence of DMSO) and inhibition controls (oxamate, 28.7 mM final concentration in assay) or no-substrate controls representing 100% inhibition were added. Oxamate is a well characterized inhibitor of LDH that inhibits LDH enzyme activity in the mM range in vitro with high specificity (Papacostantinou et al., J. Biol. Chem. 236: 278-284, 1961). The controls allowed for the calculation of the percentage inhibition for each data point. The assay buffer consisted of 50 mM HEPES pH 7.4, 5 mM MgCl2 and 0.05% pluronic acid F-127. Enzyme solution with final concentrations of 10 nM LDHC, as well as 0.2 U/ml diaphorase was dispensed into 384-well plates (Greiner bio-one) using a CyBi®-SELMA robotic pipettor. Compound dilutions and the enzyme were incubated for at least 15 to 20 min at room temperature. Thereafter, the substrate solution was added (final concentrations: 500 μM lactate, 150 μM NAD^+, 3 μM resazurin). The reaction was quenched by the addition of a stop solution (final concentrations: 20 mM EDTA, 400 mM NaCl, 40 mM pyruvate). Fluorescence was read out after 5 min of incubation at an excitation wavelength of 560 nm and an emission wavelength of 590 nm on a BMG labtech FLUOstar OPTIMA or a Perkin Elmer Victor X plate reader. […]

LDHC, sequence (P07864 whole entry): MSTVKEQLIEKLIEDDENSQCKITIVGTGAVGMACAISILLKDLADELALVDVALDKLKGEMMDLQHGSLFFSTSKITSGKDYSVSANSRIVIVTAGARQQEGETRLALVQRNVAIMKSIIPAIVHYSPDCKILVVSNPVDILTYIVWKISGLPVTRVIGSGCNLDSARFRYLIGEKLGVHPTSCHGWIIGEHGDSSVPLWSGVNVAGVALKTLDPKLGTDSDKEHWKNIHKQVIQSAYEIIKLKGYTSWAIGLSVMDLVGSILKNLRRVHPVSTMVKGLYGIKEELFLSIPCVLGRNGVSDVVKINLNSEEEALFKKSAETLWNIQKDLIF

Row | Compound | IC50 [µM]
1 | O=C1CC(c2ccc(N3CCOCC3)cc2)(c2ccsc2)NC(=O)C1Sc1cc(Cl)ccc1Cl (single isomer, unassigned) [6 Enantiomer 2] | 50 to 100
2 | O=C1CC(c2ccsc2)(c2cccc(OC3COC3)n2)NC(=O)C1Sc1ccccc1Cl (stereo not shown) [Example 10, 3-((2-chlorophenyl)thio)-6-(6-(oxetan-3-yloxy)pyridin-2-yl)-6-(thiophen-3-yl)piperidine-2,4-dione] | 10 to 50
3 | O=C1CC(c2ccc(N3CCOCC3)cc2)(c2ccsc2)NC(=O)C1Sc1ccccc1Cl (single isomer, unassigned) [7 Enantiomer 2] | 10 to 50
4 | O=C1CC(c2ccsc2)(c2cccc(OCC3CCCC3)n2)NC(=O)C1Sc1ccc(Cl)cc1Cl (stereo not shown) [Example 1, 6-[6-(cyclopentylmethoxy)pyridin-2-yl]-3-[(2,4-dichlorophenyl)sulfanyl]-6-(thiophen-3-yl)piperidine-2,4-dione] | 50 to 100
5 | O=C1CC(c2ccsc2)(c2cccc(OCC3CCCC3)n2)NC(=O)C1Sc1ccccc1Cl (stereo not shown) [Example 8, 3-((2-chlorophenyl)thio)-6-(6-(cyclopentylmethoxy)pyridin-2-yl)-6-(thiophen-3-yl)piperidine-2,4-dione] | 0.5 to 10
6 | O=C1CC(c2ccsc2)(c2cccc(OCC3CCCC3)n2)NC(=O)C1Sc1cccc(Cl)c1Cl (stereo not shown) [Example 4, 6-[6-(cyclopentylmethoxy)pyridin-2-yl]-3-[(2,3-dichlorophenyl)sulfanyl]-6-(thiophen-3-yl)piperidine-2,4-dione] | 50 to 100
7 | O=C1CC(c2ccsc2)(c2cccc(OCC3CCCC3)n2)NC(=O)C1Sc1cc(Cl)ccc1Cl (stereo not shown) [Example 3, 6-[6-(cyclopentylmethoxy)pyridin-2-yl]-3-[(2,5-dichlorophenyl)sulfanyl]-6-(thiophen-3-yl)piperidine-2,4-dione] | 0.5 to 10
8 | O=C1CC(c2ccc(N3CCOCC3)cc2)(c2ccsc2)NC(=O)C1Sc1cc(Cl)ccc1Cl (single isomer, unassigned) [6 Enantiomer 1] | 10 to 50

Further lines, results first:

Row | IC50 [µM] | Compound
9 | 0.5 to 10 | O=C1CC(c2ccsc2)(c2cccc(OCC3CCCC3)n2)NC(=O)C1Sc1ccc(F)cc1Cl (stereo not shown) [Example 2, 3-[(2-chloro-4-fluorophenyl)sulfanyl]-6-[6-(cyclopentylmethoxy)pyridin-2-yl]-6-(thiophen-3-yl)piperidine-2,4-dione]
10 | 0.5 to 10 | O=C1CC(c2ccsc2)(c2cccc(Cc3cccc(F)c3)n2)NC(=O)C1Sc1ccccc1Cl (stereo not shown) [Example 11, 3-((2-chlorophenyl)thio)-6-(6-(3-fluorobenzyl)pyridin-2-yl)-6-(thiophen-3-yl)piperidine-2,4-dione]
11 | 0.5 to 10 | O=C1NC(c2ccc(N3CCOCC3)cc2)(c2ccsc2)CC(OC(=O)c2ccncc2)=C1Sc1cc(Cl)ccc1Cl (stereo not shown) [Example 9, 5-((2,5-dichlorophenyl)thio)-2-(4-morpholinophenyl)-6-oxo-2-(thiophen-3-yl)-1,2,3,6-tetrahydropyridin-4-yl isonicotinate]
12 | 0.5 to 10 | O=C1CC(c2ccc(N3CCOCC3)cc2)(c2ccsc2)NC(=O)C1Sc1ccccc1Cl (racemic) [Example 7, 3-((2-chlorophenyl)thio)-6-(4-morpholinophenyl)-6-(thiophen-3-yl)piperidine-2,4-dione]
13 | 0.5 to 10 | O=C1CC(c2ccc(N3CCOCC3)cc2)(c2ccsc2)NC(=O)C1Sc1ccccc1Cl (single isomer, unassigned) [7 Enantiomer 1]
14 | 0.5 to 10 | O=C1CC(c2ccc(N3CCOCC3)cc2)(c2ccsc2)NC(=O)C1Sc1ccc(F)cc1Cl (stereo not shown) [Example 5, 3-((2-chloro-4-fluorophenyl)thio)-6-(4-morpholinophenyl)-6-(thiophen-3-yl)piperidine-2,4-dione]
15 | 0.5 to 10 | O=C1CC(c2ccc(N3CCOCC3)cc2)(c2ccsc2)NC(=O)C1Sc1cc(Cl)ccc1Cl (racemic) [Example 6, 3-((2,5-dichlorophenyl)thio)-6-(4-morpholinophenyl)-6-(thiophen-3-yl)piperidine-2,4-dione]
16 | 0.5 to 10 | CC(C)CCOc1cccc(C2(c3ccsc3)CC(=O)C(Sc3ccccc3Cl)C(=O)N2)n1 (stereo not shown) [Example 12, 3-((2-chlorophenyl)thio)-6-(6-(isopentyloxy)pyridin-2-yl)-6-(thiophen-3-yl)piperidine-2,4-dione]

— patent US20200163950A1, “PIPERIDINE-DIONE DERIVATIVES FOR USE AS CONTRACEPTIVES” (SPERMATECH AS, priority 2017, published 2020)
